Reference: patent US20240382564A1, “Methods and Compositions for Treating Muscular Dystrophy and Memory Impairment” (Allysta Pharmaceuticals, Inc., priority 2023, published 2024)
“Also recorded” adds a separate entry of the source. Where no end group is shown, it is not given here. [ ]: non-standard residue; d: D form. Nva = CCC[C@H](N)C(=O)O

Columns and labels:
Format in all cases: in vivo, mouse
[1] = system: D2.mdx mice; assay: H&E staining, damaged areas of muscle
Procedure: D2.mdx mice were treated with ALY688 at two different dosages; high dose (HD; 15 mg/kg body weight/day) or low dose (LD; 3 mg/kg body weight/day) dissolved in saline. A separate group of mice were treated with saline alone (VEH, vehicle). Treatment was provided via subscapular subcutaneous injections from 7 days of age to 28-30 days. […] At 28-30 days of age, mice were anaesthetized with isoflurane vaporized in medical air (21% oxygen) at a 2 L/min flow rate. Due to tissue limitations in limb muscle, certain measures were performed separately in tibialis anterior and quadriceps across several phases of breeding. […]
Samples collected were cut into 8 µm thick serial cross sections with a cryostat (Thermo Fisher Scientific; Kalamazoo, MI, United States;) maintained at −20° C. on Fisherbrand Superfrost Plus slides (Thermo Fisher Scientific). […] Centralized nuclei, a marker of regenerating fibres, was analyzed by selecting five evenly spaced images throughout the muscle and averaging the result. Areas of damage (fibres with fragmented sarcoplasm and immune cell infiltration) were expressed as a percentage of the entire muscle section. Images were taken using EVOS M7000 imager (Thermo Fisher Scientific) using 20× magnification and analyzed using ImageJ (http://imagej.nih.gov/ij/). […] These images were then analyzed with ImageJ for minimal Feret's diameter as an index of muscle atrophy.

[2] = system: D2.mdx mice; assay: Hippocampal high-resolution respirometry; conditions: 15 mg/kg daily; 15 μM ADP
Procedure: Male D2.mdx mice originated from a colony maintained at York University (Toronto, Canada) and sourced from Jackson Laboratories (Stock Number 013141, Bar Harbor, United States). Mice were treated daily from days 7 to 28 of age with ALY688 at 15 mg/kg b.w. (D2.mdx-ALY688) or saline control (D2.mdx-VEH). This age was chosen given it captures an early stage of disease progression in cardiac and skeletal muscle. Mice were sacrificed 20-24 hr after the last dose. Breeding of wildtype mice was unsuccessful. Instead, three-week-old wildtype DBA/2J WT mice (D2A) were obtained from Jackson Laboratories (Stock number 000671, Bar Harbor, United States) and allowed to acclimatize for one week before sacrifice. Mice were housed in standard 12:12-hr light:dark cycles and were allowed access to standard rodent chow and water ad libitum. 4 days prior to sacrifice, all groups underwent novel object recognition acclimatization and testing as described below. Mice were anesthetized under 5% isoflurane vaporized in medical air (21% oxygen) at a flow rate of 2 L/min and then maintained at 2-3% prior to euthanasia by exsanguination. […]
Mitochondrial oxygen consumption (respiration) was measured using the in situ brain permeabilization. […] Polarographic oxygen measurements were acquired in 2 s intervals with the rate of respiration derived from 40 data points and expressed as pmol/s/mg wet weight. […]

[3] = system: D2.mdx mice; assay: Functional assays (grip strength, cage hang time, voluntary wheel running) and serum creatine kinase
Procedure: D2.mdx mice were treated with ALY688 at two different dosages; high dose (HD; 15 mg/kg body weight/day) or low dose (LD; 3 mg/kg body weight/day) dissolved in saline. A separate group of mice were treated with saline alone (VEH, vehicle). Treatment was provided via subscapular subcutaneous injections from 7 days of age to 28-30 days. […] At 28-30 days of age, mice were anaesthetized with isoflurane vaporized in medical air (21% oxygen) at a 2 L/min flow rate. Due to tissue limitations in limb muscle, certain measures were performed separately in tibialis anterior and quadriceps across several phases of breeding. Following the treatment protocol, in situ quadriceps force assessments were then performed in one limb followed by removal of the quadriceps from the other limb for mitochondrial assessments, diaphragm for in vitro force assessments and finally other tissues for further processing as described below. Muscle and visceral organs weights were normalized to tibia length. Tissue collected from the first phase were utilized in force, histological, mitochondrial measures (respiration, mH2O2 and calcium retention capacity) and western analyses (diaphragm and quadriceps only). A second phase was then collected and utilized for cytokine profiling, qPCR analyses and additional westerns (TA only). Serum was collected from both phase 1 and 2 and utilized for serum CK analysis. All animals were utilized in in vivo functional assays (grip strength, cage hang time and voluntary wheel running).
Voluntary wheel running, cage hang time and forelimb grip strength were assessed two days before sacrifice. Serum derived from cardiac puncture at the time of sacrifice were assessed spectrofluorometrically for creatine kinase activity (U/L).

Substance: [dN]IP[Nva]LY[dS]FA[dS]-NH2 [ALY688]
- damaged areas (H&E) ([1]; diaphragm, all D2.mdx groups (VEH, LD, HD)): 3.7-to-3.9 fold change vs WT
- damaged areas (H&E) ([1]; tibialis anterior, all three D2.mdx groups): 17.2-to-22.6 fold increase vs WT
- hippocampal pyruvate-supported respiration stimulated by ADP [2]: completely preserved; also recorded: complete restoration
- serum creatine kinase ([3]; D2.mdx groups): 3.1-to-5.2 fold increase vs WT
- grip strength, cage hang time and voluntary wheel running, comparison between D2.mdx groups ([3]; VEH, LD, HD): similar
- grip strength, cage hang time and voluntary wheel running ([3]; all D2.mdx groups): −15.1% to −91.0
- serum creatine kinase ([3]; low dose vs other D2.mdx groups): increases seen with the low dose
